Test system: human melanoma cell line grafted mouse models
Experiment: Anti-tumor effect of angiogenesis inhibitor on mouse model grafted with melanoma cell line
Type: in vivo, nude mouse
Conditions: 100 mg/kg/day orally, 7th day after initiation of administration
Procedure: The human melanoma cell lines used in Example 1 were respectively cultured in the mediums shown in the column of “Culture medium” (containing 10% FBS) of Table 6 until about 80% confluency was obtained (in an incubator under 5% carbon dioxide gas). After culturing, cells were collected by trypsin-EDTA treatment in accordance with a conventional method. The cells were suspended with a phosphate buffer or a matrigel solution (mixture of phosphate buffer and matrigel in a common ratio of 1:1) to prepare suspension solution of 1×10^8 cells/mL or 5×10^7 cells/mL. The cell suspension (0.1 mL) was subcutaneously grafted to the side of the body of each nude mouse. In this manner, human melanoma cell line grafted mouse models were prepared.
After grafting, from the time point when a tumor volume reached about 200 mm^3, a mesylate of 4-(3-chloro-4-(cyclopropylaminocarbonyl)aminophenoxy)-7-methoxy-6-quinolinecarboxamide (hereinafter referred to as E7080) (100 mg/kg/day) was orally administered. The major axis and minor axis of the tumor were measured everyday by Digimatic Caliper (Mitsutoyo). The tumor volume and specific tumor volume were calculated in accordance with the following formula and thereby the anti-tumor effect (ΔT/C) of an angiogenesis inhibitor on the mouse model was measured.
Tumor volume (TV)=tumor longest diameter (mm)×tumor short diameter^2 (mm^2)/2
Anti-tumor effect (ΔT/C)=(TV of medicinal drug administered group−TV before initiation of administration)/(TV of control group−TV before initiation of administration)×100
In FIG. 1, the same cell lines used in Example 1 were used.

## COc1cc2nccc(Oc3ccc(NC(=O)NC4CC4)c(Cl)c3)c2cc1C(N)=O [E7080, 4-(3-Chloro-4-(cyclopropylaminocarbonyl)aminophenoxy)-7-methoxy-6-quinolinecarboxamide]
Melanoma cells where BRAF has a mutation and PTEN has no mutation
  Anti-tumor effect (ΔT/C): 45%
Melanoma cells where both of BRAF and PTEN are wild type
  Anti-tumor effect (ΔT/C): 16%
Melanoma cells where both of BRAF and PTEN have a mutation or loss of expression
  Anti-tumor effect (ΔT/C): 23%

From patent US20200199689A1, “Method for Predicting Effectiveness of Angiogenesis Inhibitor” (Eisai R&D Management Co., Ltd., priority 2011, published 2020)
